Calls of active or inactive are those of the source. The calls are words filed in the database; no cut-off is given here.
Columns and labels:
Mus musculus [1] = experiment: Anti-inflammatory activity in Balb/c albino Mus musculus (mouse) assessed as inhibition of carrageenan-induced paw edema at 50 to 150 mg/kg at 1 hr relative to control; type: functional, organism-based
Mus musculus [2] = experiment: Anti-inflammatory activity in Balb/c albino Mus musculus (mouse) assessed as inhibition of carrageenan-induced paw edema at 50 to 150 mg/kg at 5 hr relative to control; type: functional, organism-based
Mus musculus [3] = experiment: Anti-inflammatory activity in Balb/c albino Mus musculus (mouse) assessed as inhibition of carrageenan-induced paw edema at 50 to 150 mg/kg up to 5 hr relative to control; type: functional, organism-based
Mus musculus [4] = experiment: Antipyretic activity in Balb/c albino Mus musculus (mouse) assessed as decrease in Brewer's yeast-induced rectal temperature at 50 to 150 mg/kg, ip measured up to 1.5 hr relative to control; type: functional, organism-based
Mus musculus [5] = experiment: Analgesic activity in Balb/c albino Mus musculus (mouse) assessed as protection against acetic acid-induced writhing at 15 to 45 mg/kg measured up to 20 min relative to control; type: functional; details: dose mg/kg 15-45
Mus musculus [6] = experiment: Antipyretic activity in Balb/c albino Mus musculus (mouse) assessed as Brewer's yeast-induced rectal temperature at 50 to 150 mg/kg, ip measured after 3 hr (reference value: 38.7 degC); type: functional; details: dose mg/kg 50-150; route intraperitoneal
Mus musculus [7] = experiment: Antinociceptive activity in Balb/c albino Mus musculus (mouse) assessed as latency time on hot plate at 15 to 45 mg/kg up to 60 min by hot-plate method relative to control; type: functional, organism-based

Structure (SMILES)	inhibition (Mus musculus [1])	inhibition (Mus musculus [2])	inhibition (Mus musculus [3])	inhibition (Mus musculus [4])	Activity (Mus musculus [5]) [%]	T (Mus musculus [6]) [°C]	Activity (Mus musculus [7])
Cl.NC(=O)C1CCN(Cc2ccccc2O)CC1	Active	Active	Active	Active	67.34	37.2	inactive
CC(=O)Oc1ccccc1C(=O)O [ASPIRIN]	–	–	–	–	78.38	–	–
Cl.Oc1ccccc1CN1CCCCC1	Active	Active	–	Active	67.62	37.7	inactive
